Test results taken from patent US20260265256A1 (IMPACT THERAPEUTICS (SHANGHAI), INC., priority 2023, published 2026).

Assays:
PDE3A = target: T1, PDE3A (Homo sapiens, UniProt Q14432); test: PDE3A fluorescence polarization (FP) assay; format: biochemical; conditions: 2 nM PDE3A, 0.2 μM FAM-cAMP, read-out: IC50 (μM), PDE3A enzyme activity
T1 construct: purchased Sino Biological 11908-H20B1
Description: A PDE3A fluorescence polarization (FP) assay in a multi-step format was performed using black, round bottom 384-well plates (Corning, 4514). The testing compounds were serially diluted from stock solutions to 11 concentrations with a 3-fold dilution factor using DMSO. Fifty nL of compound dilutions was mixed with 5 μL of reaction buffer (10 mM Tris-HCl, pH 7.2, 10 mM MgCl2, 0.05% NaN3, 0.1% phosphate-free BSA) containing 0.2 μM FAM-cAMP (BPS, 60200) and 2 nM PDE3A (Sino Biological, 11908-H20B1) enzyme, and incubated for 60 min at 25° C. Afterwards, 15 μL binding agent mixture (Molecular Devices, R8124) was added to each well and the plate was incubated for 60 min at 25° C. The plate was loaded to a BMG PHERAstar FSX to read Fluorescence Polarization (FP) values at a setting of: Ex: 485 nm and Em: 520 nm. Emission light intensity with polarizers parallel (Em|) and emission light intensity with polarizers perpendicular (Em⊥) were recorded. The Polarization (mP) values were calculated using the following formula: mP=(SignalEm|−SignalEm⊥)/(SignalEm|+SignalEm⊥).
Data analysis: • 1) The inhibition % of a compound dose is calculated as:
[formula] • wherein mPMin and mPMax refer to the polarization readings in the condition of substrate only and substrate+enzyme, respectively. • 2) The IC50 values were calculated from non-linear curve fitting using following regression equation using a commercial curve fitting software GraphPad Prism 9.2.0.
wherein X refers to Log of compound concentration and Y refers to % Inhibition.
Table 3 summarize the inhibitory effects of compounds on PDE3A enzyme activity (IC50).

MDA-MB-436 cells = test: Growth inhibition assay against BRCA mutant human breast cancer MDA-MB-436 cell line (CCK-8, 7 days); format: cell-based; conditions: 168 h, MDA-MB-436, 7 days, read-out: IC50 (nM), proliferation of human breast cancer cells MDA-MB-436
Description: The cells were cultured in complete medium (DMEM medium+10% FBS+Insulin+glutathione). When the confluence reached about 80%, cells were digested and gently dispensed from the bottom of the dish with a 1 mL pipette. Cell suspension was collected and centrifuged at 500 rpm for 3 min. The supernatant was discarded, and the cell pellet were re-suspended in complete medium. The cells were seeded into a culture dish at an appropriate proportion, and then cultured in a 5% CO2 incubator at 37° C. The assay was carried out when the cells were in optimum condition and the confluence was reached 80%. Cells in the logarithmic growth phase were taken to centrifugate, and the culture supernatant was removed. The cells were resuspended in refresh complete medium and counted. The resuspended cells were seeded at 3000/well in a 96-well plate and incubated at 37° C., 5% CO2 incubator overnight. […] The solution was mixed by oscillation. 0.10% DMSO was used as the control.
The next day, the 96-well plate inoculated with cells was taken out from the incubator, and the culture supernatant was removed. Then fresh medium of 195 uL/well and 5 μL/well of 40× test compound solution as mentioned above were added into the 96 well plate, respectively. Finally, the plate was incubated for 7 days in a 37° C. 5% CO2 incubator. The medium containing compound was changed on the fourth day. After 7 days, 20 μL of CCK-8 was added to each well and shaken gently, then was cultured for 4 hours. The plate was shaken for 5 min after incubation, the absorbance values of 450 nm or 650 nm wavelengths were recorded respectively (OD=absorbance value of 450 nm−absorbance value of 650 nm) by using the multifunction readout instrument.
Data were analyzed by software GraphPad Prism 6.0. The inhibitory activity of compounds on cell proliferation was plotted using cell survival rate against the compound concentration as coordinates. Cell survival rate %=(ODcompound−ODbackground)/(ODDMSO−ODbackground)×100.
Table 2 summarizes the inhibitory effect data (IC50) of the compounds on the proliferation of human breast cancer cells MDA-MB-436.

[1] = target: recombinant poly(ADP-ribose) polymerase 2 (PARP2) (Homo sapiens, UniProt Q9UGN5); test: PARP2 chemiluminescent assay; format: biochemical; conditions: PARP2 enzyme activity, chemiluminescence, 40 ng enzyme/well
Sequence of recombinant poly(ADP-ribose) polymerase 2 (PARP2) (Q9UGN5 whole entry): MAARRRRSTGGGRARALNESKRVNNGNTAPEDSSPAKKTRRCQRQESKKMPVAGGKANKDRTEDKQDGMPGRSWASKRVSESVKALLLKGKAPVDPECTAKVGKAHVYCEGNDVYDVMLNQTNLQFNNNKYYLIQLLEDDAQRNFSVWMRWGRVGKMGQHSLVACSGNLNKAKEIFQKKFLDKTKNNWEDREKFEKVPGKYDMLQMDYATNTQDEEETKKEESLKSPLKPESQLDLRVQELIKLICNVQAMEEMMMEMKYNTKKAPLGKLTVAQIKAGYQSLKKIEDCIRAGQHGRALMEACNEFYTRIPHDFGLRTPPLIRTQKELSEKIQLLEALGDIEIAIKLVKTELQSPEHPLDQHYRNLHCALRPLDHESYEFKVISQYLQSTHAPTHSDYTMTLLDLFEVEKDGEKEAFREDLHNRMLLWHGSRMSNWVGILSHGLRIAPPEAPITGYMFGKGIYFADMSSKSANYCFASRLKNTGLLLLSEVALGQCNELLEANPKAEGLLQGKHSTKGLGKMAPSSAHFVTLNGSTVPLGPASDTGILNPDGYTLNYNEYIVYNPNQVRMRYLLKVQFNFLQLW
Description: The solution of recombinant poly(ADP-ribose) polymerase 1 and 2 (PARP1 and PARP2) (40 ng enzyme/well) and the compounds to be tested were mixed, respectively. The solutions were added to a 96-well plate coated with histone mixture, incubated at room temperature for 1 h, then 50 μL 0.3 ng/mL Streptavidin-HRP was added to each well. The plates were incubated for 30 minutes at room temperature. Finally, the plates were treated with streptavidin-HRP followed by addition of the ELISA ECL substrate to produce chemiluminescence that can be measured using a chemiluminescence reader. Inhibition of the tested compound to PARP1/2 enzyme activity was calculated according to the following formula. [formula] IC50 value is obtained by fitting the s-shaped dose response curve equation by using XL Fit software.

T1 sequence (Q14432 669-1141 limits assumed): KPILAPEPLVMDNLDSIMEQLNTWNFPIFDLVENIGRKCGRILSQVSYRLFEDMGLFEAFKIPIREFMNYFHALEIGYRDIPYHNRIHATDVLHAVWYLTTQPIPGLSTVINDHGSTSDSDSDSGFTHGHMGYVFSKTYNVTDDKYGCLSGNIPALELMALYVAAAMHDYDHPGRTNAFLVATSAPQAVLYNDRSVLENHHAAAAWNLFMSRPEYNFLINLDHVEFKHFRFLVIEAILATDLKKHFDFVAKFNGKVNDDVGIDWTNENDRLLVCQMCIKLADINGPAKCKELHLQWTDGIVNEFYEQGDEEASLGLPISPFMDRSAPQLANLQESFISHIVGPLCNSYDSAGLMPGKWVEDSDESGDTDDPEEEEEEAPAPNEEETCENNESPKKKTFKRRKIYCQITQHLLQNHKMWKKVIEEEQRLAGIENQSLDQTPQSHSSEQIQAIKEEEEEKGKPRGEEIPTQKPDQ

IC50 (PDE3A)	IC50 (MDA-MB-436 cells)	IC50 [1]	Structure (SMILES)
> 30 µM	2.13 nM		CNC(=O)c1ccc(-n2cc3c(n2)CN(Cc2ccc4c([nH]c(=O)c5c(C)cnn54)c2F)C3)cn1 [Example 1-1, 5-(5-((6-fluoro-3-methyl-4-oxo-4,5-dihydropyrazolo[1,5-a]quinoxalin-7-yl)methyl)-5,6-dihydropyrrolo[3,4-c]pyrazol-2(4H)-yl)-N-methylpicolinamide]
> 30 µM	4.11 nM		Cc1cnn2c1c(=O)[nH]c1c(F)c(CN3Cc4cn(-c5ccc(C(=O)NC6CC6)nc5)nc4C3)ccc12 [Example 8, 5-(5-((6-fluoro-3-methyl-4-oxo-4,5-dihydropyrazolo[1,5-a]quinoxalin-7-yl)methyl)-5,6-dihydropyrrolo[3,4-c]pyrazol-2(4H)-yl)-N-cyclopropylpicolinamide]
> 30 µM	> 100 nM		CNC(=O)c1ccc(-n2cc3c(n2)CCN(Cc2ccc4c([nH]c(=O)c5c(C)cnn54)c2F)C3)c(C)n1 [Example 11, 5-(5-((6-fluoro-3-methyl-4-oxo-4,5-dihydropyrazolo[1,5-a]quinoxalin-7-yl)methyl)-4,5,6,7-tetrahydro-2H-pyrazolo[4,3-c]pyridin-2-yl)-N,6-dimethylpicolinamide]
> 30 µM	> 100 nM		CNC(=O)c1ccc(-n2cc3c(n2)CCN(Cc2ccc4c([nH]c(=O)c5c(C)cnn54)c2F)C3)c(F)n1 [Example 12, 5-(5-((6-fluoro-3-methyl-4-oxo-4,5-dihydropyrazolo[1,5-a]quinoxalin-7-yl)methyl)-4,5,6,7-tetrahydro-2H-pyrazolo[4,3-c]pyridin-2-yl)-6-fluoro-N-methylpicolinamide]
> 30 µM	5.06 nM		CNC(=O)c1ccc(-n2cc3c(n2)CN(Cc2ccc4c([nH]c(=O)c5c(F)cnn54)c2F)C3)c(C)n1 [Example 14, 5-(5-((3,6-difluoro-4-oxo-4,5-dihydropyrazolo[1,5-a]quinoxalin-7-yl)methyl)-5,6-dihydropyrrolo[3,4-c]pyrazol-2(4H)-yl)-N,6-dimethylpicolinamide]
> 30 µM	0.59 nM		CCNC(=O)c1ccc(-n2cc3c(n2)CN(Cc2ccc4c([nH]c(=O)c5c(F)cnn54)c2F)C3)cn1 [Example 18, 5-(5-((3,6-difluoro-4-oxo-4,5-dihydropyrazolo[1,5-a]quinoxalin-7-yl)methyl)-5,6-dihydropyrrolo[3,4-c]pyrazol-2(4H)-yl)-N-ethylpicolinamide]
	13 nM	64 nM	CNC(=O)c1ccc(-n2cc3c(n2)CN(Cc2ccc4c([nH]c(=O)c5c(C(F)(F)F)cnn54)c2F)C3)c(F)n1 [Example 26, 5-(5-((6-fluoro-4-oxo-3-(trifluoromethyl)-4,5-dihydropyrazolo[1,5-a]quinoxalin-7-yl)methyl)-5,6-dihydropyrrolo[3,4-c]pyrazol-2(4H)-yl)-6-fluoro-N-methylpicolinamide]
> 30 µM	1.44 nM		CNC(=O)c1ccc(-n2cc3c(n2)CN(Cc2ccc4c([nH]c(=O)c5cc(F)nn54)c2F)C3)cn1 [Example 27, 5-(5-((2,6-difluoro-4-oxo-4,5-dihydropyrazolo[1,5-a]quinoxalin-7-yl)methyl)-5,6-dihydropyrrolo[3,4-c]pyrazol-2(4H)-yl)-N-methylpicolinamide]
	3.33 nM	40 nM	CNC(=O)c1ccc(-c2nc3c([nH]2)CN(Cc2ccc4c([nH]c(=O)c5c(C)cnn54)c2F)C3)cn1 [Example 34, 5-(5-((6-fluoro-3-methyl-4-oxo-4,5-dihydropyrazolo[1,5-a]quinoxalin-7-yl)methyl)-1,4,5,6-tetrahydropyrrolo[3,4-d]imidazol-2-yl)-N-methylpicolinamide]
> 30 µM	1.82 nM		CNC(=O)c1ccc(-n2cc3c(c2)CN(Cc2ccc4c([nH]c(=O)c5c(C)cnn54)c2F)C3)cn1 [Example 39, 5-(5-((6-fluoro-3-methyl-4-oxo-4,5-dihydropyrazolo[1,5-a]quinoxalin-7-yl)methyl)-5,6-dihydropyrrolo[3,4-c]pyrrol-2(4H)-yl)-N-methylpicolinamide]
	1.6 nM	61.1 nM	CNC(=O)c1ccc(-c2nc3c(o2)CN(Cc2ccc4c([nH]c(=O)c5c(F)cnn54)c2F)C3)cn1 [Example 41, 5-(5-((3,6-difluoro-4-oxo-4,5-dihydropyrazolo[1,5-a]quinoxalin-7-yl)methyl)-5,6-dihydro-4H-pyrrolo[3,4-d]oxazol-2-yl)-N-methylpicolinamide]
	2.84 nM	5.18 nM	CNC(=O)c1ccc(-c2nc3c([nH]2)CN(Cc2ccc4c([nH]c(=O)c5c(F)cnn54)c2F)C3)cn1 [Example 43, 5-(5-((3,6-difluoro-4-oxo-4,5-dihydropyrazolo[1,5-a]quinoxalin-7-yl)methyl)-1,4,5,6-tetrahydropyrrolo[3,4-d]imidazol-2-yl)-N-methylpicolinamide]
	1.01 nM	180 nM	CCNC(=O)c1ccc(-n2cc3c(n2)CN(Cc2ccc4c([nH]c(=O)n5cc(C)nc45)c2F)C3)cn1 [Example 50, N-ethyl-5-(5-((7-fluoro-2-methyl-5-oxo-5,6-dihydroimidazo[1,2-c]quinazolin-8-yl)methyl)-5,6-dihydropyrrolo[3,4-c]pyrazol-2(4H)-yl)picolinamide]
	1.21 nM	157 nM	CCNC(=O)c1ccc(-n2cc3c(n2)CN(Cc2ccc4c([nH]c(=O)c5occc54)c2F)C3)cn1 [Example 53, N-ethyl-5-(5-((6-fluoro-4-oxo-4,5-dihydrofuro[2,3-c]quinolin-7-yl)methyl)-5,6-dihydropyrrolo[3,4-c]pyrazol-2(4H)-yl)picolinamide]
	4.66 nM	2760 nM	CNC(=O)c1ccc(-n2cc3c(n2)CN(Cc2ccc4c([nH]c(=O)c5cc(F)nn54)c2F)C3)c(F)n1 [Example 56, 5-(5-((2,6-difluoro-4-oxo-4,5-dihydropyrazolo[1,5-a]quinoxalin-7-yl)methyl)-5,6-dihydropyrrolo[3,4-c]pyrazol-2(4H)-yl)-6-fluoro-N-methylpicolinamide]
	0.44 nM	278 nM	CNC(=O)c1ccc(-n2cc3c(c2)CN(Cc2ccc4c([nH]c(=O)c5c(F)cnn54)c2F)C3)c(F)n1 [Example 62, 5-(5-((3,6-difluoro-4-oxo-4,5-dihydropyrazolo[1,5-a]quinoxalin-7-yl)methyl)-5,6-dihydropyrrolo[3,4-c]pyrrol-2(4H)-yl)-6-fluoro-N-methylpicolinamide]
	0.85 nM	> 10000 nM	CNC(=O)c1ccc(-n2cc3c(c2)CN(Cc2ccc4c([nH]c(=O)c5c(C)cnn54)c2F)C3)c(F)n1 [Example 63, 6-fluoro-5-(5-((6-fluoro-3-methyl-4-oxo-4,5-dihydropyrazolo[1,5-a]quinoxalin-7-yl)methyl)-5,6-dihydropyrrolo[3,4-c]pyrrol-2(4H)-yl)-N-methylpicolinamide]
